Reference: ChEMBL document CHEMBL1201862, “PubChem BioAssay data set” (2004)
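Each compound was tested at five concentrations against cells in 96-well plates for 48 hours. The concentration for 50% growth inhibition is given as GI50.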 Active and inactive are the calls of the source. Rule as the data show it: active = GI50 up to about 1.1 µM and inactive = higher.

Tests used:
Test in all cases: NCI-60 cell line screen, 48 h
LOX IMVI = system: LOX IMVI
DMS-114 = system: DMS-114
NCI/ADR-RES = system: NCI/ADR-RES
XF498 = system: XF498
MCF7 = system: MCF7
SF-268 = system: SF-268
M19-MEL = system: M19-MEL
OVCAR-3 = system: OVCAR-3
UO-31 = system: UO-31
SNB-78 = system: SNB-78
DLD-1 = system: DLD-1
KM-20L2 = system: KM-20L2
HCT-116 = system: HCT-116

Measured: GI50

CSCC[C@@H](NC(=O)[C@H](CC(C)C)NC(=O)C(Cc1cnc[nH]1)NC(=O)CNC(=O)[C@@H](NC(=O)[C@H](C)NC(=O)[C@H](Cc1cn(C=O)c2ccccc12)NC(=O)[C@H](CCC(N)=O)NC(=O)[C@@H](N)CC(N)=O)C(C)C)C(N)=O (some centres undefined)
inactive: LOX IMVI 53.8 µM | DMS-114 > 100 µM | NCI/ADR-RES > 100 µM | XF498 > 100 µM | MCF7 > 100 µM | SF-268 > 100 µM | M19-MEL > 100 µM | OVCAR-3 > 100 µM | UO-31 > 100 µM | SNB-78 > 100 µM | DLD-1 > 100 µM | KM-20L2 > 100 µM | HCT-116 > 100 µM

NCCCCCC(CCN)SCC1OC(n2cnc3c(N)ncnc32)C(O)C1O (centres undefined)
inactive: LOX IMVI > 1060 µM | DMS-114 339 µM | NCI/ADR-RES > 948 µM | XF498 > 15 µM | MCF7 > 1500 µM | SF-268 1460 µM | M19-MEL > 843 µM | OVCAR-3 > 1500 µM | UO-31 394 µM | SNB-78 > 1020 µM | DLD-1 > 1500 µM | KM-20L2 482 µM | HCT-116 233 µM

Cc1[nH]c(=O)[nH]c(=O)c1/C=C/C(=O)NC(CO)CC(C)C (centres undefined)
inactive: LOX IMVI > 375 µM | DMS-114 260 µM | NCI/ADR-RES > 375 µM | XF498 60 µM | MCF7 228 µM | SF-268 231 µM | M19-MEL 322 µM | OVCAR-3 164 µM | UO-31 > 375 µM | SNB-78 373 µM | DLD-1 > 375 µM | KM-20L2 88.1 µM | HCT-116 322 µM
